Experimental data: patent US20210254056A1, “IDENTIFICATION AND TARGETED MODULATION OF GENE SIGNALING NETWORKS” (CAMP4 THERAPEUTICS CORPORATION, priority 2017, published 2021)

Test system: hepatocytes
Test: RNA-seq of hepatocytes treated with Phase III failure compounds
Details: hepatocytes
Protocol: RNA-seq was performed to determine the effects of the compounds on hepatocytes.
Significance was determined by the criteria of FPKM≥0.5, a log 2(fold-change)≥1, and a […].

How did the “RNA-seq results: DOLK expression” value (gene DOLK) turn out when CCC(CC)[C@H](NC(C)=O)[C@@H]1[C@H](O)[C@@H](C(=O)O)C[C@H]1NC(=N)N.O.O.O [peramivir (trihydrate), peramivir] was run?
Its value is 0.33.

What about the “RNA-seq results, DPM3 expression” value (gene DPM3) of the same compound?
Its value is −0.11.

And the “RNA-seq results: DPM3 expression” value (gene DPM3)?
The value was 0.68.

What about the “RNA-seq results, DPYD expression” value (gene DPYD) of the same compound?
Its value is −0.21.

And the “RNA-seq results: DPYD expression” value (gene DPYD)?
The value was −0.43.

What about the “RNA-seq results, DPYS expression” value (gene DPYS) of the same compound?
Its value is −0.01.

And the “RNA-seq results: DPYS expression” value (gene DPYS)?
Its value is −0.27.

And the “RNA-seq results, EARS2 expression” value (gene EARS2)?
The value was 0.04.

And the “RNA-seq results: EARS2 expression” value (gene EARS2)?
Its value is −0.01.

And the “RNA-seq results, EDA expression” value (gene EDA)?
The value was −0.03.

What about the “RNA-seq results: EDA expression” value (gene EDA) of the same compound?
Its value is 0.3.

What about the “RNA-seq results, EHHADH expression” value (gene EHHADH) of the same compound?
Its value is −0.10.

And the “RNA-seq results: EHHADH expression” value (gene EHHADH)?
The value was −0.3.

What about the “RNA-seq results, ELAC2 expression” value (gene ELAC2) of the same compound?
The value was −0.15.

What about the “RNA-seq results: ELAC2 expression” value (gene ELAC2) of the same compound?
Its value is −0.13.

What about the “RNA-seq results, ENO3 expression” value (gene ENO3) of the same compound?
Its value is 0.30.

And the “RNA-seq results: ENO3 expression” value (gene ENO3)?
Its value is −0.12.

And the “RNA-seq results, ENPP1 expression” value (gene ENPP1)?
Its value is −0.28.

And the “RNA-seq results: ENPP1 expression” value (gene ENPP1)?
Its value is −0.21.

And the “RNA-seq results, EPG5 expression” value (gene EPG5)?
Its value is 0.13.

What about the “RNA-seq results: EPG5 expression” value (gene EPG5) of the same compound?
Its value is 0.

And the “RNA-seq results, EPHX1 expression” value (gene EPHX1)?
Its value is −0.26.

What about the “RNA-seq results: EPHX1 expression” value (gene EPHX1) of the same compound?
The value was 0.16.

What about the “RNA-seq results, ERCC4 expression” value (gene ERCC4) of the same compound?
Its value is −0.23.

What about the “RNA-seq results: ERCC4 expression” value (gene ERCC4) of the same compound?
The value was −0.18.

And the “RNA-seq results, ERCC6 expression” value (gene ERCC6)?
Its value is 0.05.

What about the “RNA-seq results: ERCC6 expression” value (gene ERCC6) of the same compound?
Its value is −0.09.

And the “RNA-seq results, ETFB expression” value (gene ETFB)?
Its value is 0.23.

What about the “RNA-seq results: ETFB expression” value (gene ETFB) of the same compound?
The value was 0.14.

What about the “RNA-seq results, ETHE1 expression” value (gene ETHE1) of the same compound?
Its value is 0.31.

And the “RNA-seq results: ETHE1 expression” value (gene ETHE1)?
The value was 0.31.

What about the “RNA-seq results, F2 expression” value (gene F2) of the same compound?
The value was 0.11.

And the “RNA-seq results: F2 expression” value (gene F2)?
The value was 0.31.

And the “RNA-seq results, F2RL1 expression” value (gene F2RL1)?
Its value is −0.53.

What about the “RNA-seq results: F2RL1 expression” value (gene F2RL1) of the same compound?
The value was 0.01.

And the “RNA-seq results, F5 expression” value (gene F5)?
Its value is −0.08.

What about the “RNA-seq results: F5 expression” value (gene F5) of the same compound?
The value was −0.44.

What about the “RNA-seq results, F9 expression” value (gene F9) of the same compound?
Its value is −0.53.

And the “RNA-seq results: F9 expression” value (gene F9)?
The value was −0.17.

What about the “RNA-seq results, FABP1 expression” value (gene FABP1) of the same compound?
Its value is 0.73.

What about the “RNA-seq results: FABP1 expression” value (gene FABP1) of the same compound?
Its value is −0.05.

What about the “RNA-seq results, FADD expression” value (gene FADD) of the same compound?
The value was −0.14.

And the “RNA-seq results: FADD expression” value (gene FADD)?
The value was 0.13.

And the “RNA-seq results, FAM111A expression” value (gene FAM111A)?
The value was −0.08.

What about the “RNA-seq results: FAM111A expression” value (gene FAM111A) of the same compound?
Its value is −0.05.

And the “RNA-seq results, FAM111B expression” value (gene FAM111B)?
The value was 0.11.

What about the “RNA-seq results: FAM111B expression” value (gene FAM111B) of the same compound?
The value was −0.44.

And the “RNA-seq results, FAN1 expression” value (gene FAN1)?
The value was −0.06.

What about the “RNA-seq results: FAN1 expression” value (gene FAN1) of the same compound?
Its value is −0.14.

What about the “RNA-seq results, FARS2 expression” value (gene FARS2) of the same compound?
The value was −0.22.

And the “RNA-seq results: FARS2 expression” value (gene FARS2)?
The value was −0.04.

What about the “RNA-seq results, FASLG expression” value (gene FASLG) of the same compound?
The value was 1.15.

And the “RNA-seq results: FASLG expression” value (gene FASLG)?
Its value is −0.66.

And the “RNA-seq results, FGA expression” value (gene FGA)?
The value was −0.25.

And the “RNA-seq results: FGA expression” value (gene FGA)?
The value was −0.37.

What about the “RNA-seq results, FGD1 expression” value (gene FGD1) of the same compound?
Its value is −0.25.

And the “RNA-seq results: FGD1 expression” value (gene FGD1)?
The value was 0.14.

And the “RNA-seq results, FGFR2 expression” value (gene FGFR2)?
Its value is −0.13.

What about the “RNA-seq results: FGFR2 expression” value (gene FGFR2) of the same compound?
Its value is −0.42.

What about the “RNA-seq results, FIG4 expression” value (gene FIG4) of the same compound?
The value was −0.30.

What about the “RNA-seq results: FIG4 expression” value (gene FIG4) of the same compound?
The value was 0.3.

And the “RNA-seq results, FIS1 expression” value (gene FIS1)?
Its value is 0.44.

What about the “RNA-seq results: FIS1 expression” value (gene FIS1) of the same compound?
The value was 0.25.

And the “RNA-seq results, FTCD expression” value (gene FTCD)?
The value was 0.58.

What about the “RNA-seq results: FTCD expression” value (gene FTCD) of the same compound?
The value was 0.43.

And the “RNA-seq results, FTH1 expression” value (gene FTH1)?
The value was −0.04.

What about the “RNA-seq results: FTH1 expression” value (gene FTH1) of the same compound?
Its value is 0.7.

What about the “RNA-seq results, FUCA1 expression” value (gene FUCA1) of the same compound?
The value was −0.23.

What about the “RNA-seq results: FUCA1 expression” value (gene FUCA1) of the same compound?
Its value is 0.07.

And the “RNA-seq results, FXN expression” value (gene FXN)?
Its value is −0.69.

And the “RNA-seq results: FXN expression” value (gene FXN)?
Its value is 0.12.

And the “RNA-seq results, G6PC3 expression” value (gene G6PC3)?
Its value is 0.06.

And the “RNA-seq results: G6PC3 expression” value (gene G6PC3)?
Its value is 0.29.

What about the “RNA-seq results, G6PC expression” value (gene G6PC) of the same compound?
Its value is 0.23.

And the “RNA-seq results: G6PC expression” value (gene G6PC)?
The value was 0.01.

What about the “RNA-seq results, G6PD expression” value (gene G6PD) of the same compound?
Its value is 0.08.

What about the “RNA-seq results: G6PD expression” value (gene G6PD) of the same compound?
Its value is 0.59.

What about the “RNA-seq results, GALK1 expression” value (gene GALK1) of the same compound?
The value was 0.18.

And the “RNA-seq results: GALK1 expression” value (gene GALK1)?
The value was 0.34.

What about the “RNA-seq results, GALK2 expression” value (gene GALK2) of the same compound?
Its value is −0.13.

What about the “RNA-seq results: GALK2 expression” value (gene GALK2) of the same compound?
Its value is −0.11.

And the “RNA-seq results, GALT expression” value (gene GALT)?
Its value is 0.15.

And the “RNA-seq results: GALT expression” value (gene GALT)?
Its value is 0.26.

What about the “RNA-seq results, GATA6 expression” value (gene GATA6) of the same compound?
Its value is −0.08.

What about the “RNA-seq results: GATA6 expression” value (gene GATA6) of the same compound?
Its value is −0.02.

And the “RNA-seq results, GATM expression” value (gene GATM)?
Its value is −0.37.

What about the “RNA-seq results: GATM expression” value (gene GATM) of the same compound?
Its value is −0.37.

And the “RNA-seq results, GBA expression” value (gene GBA)?
Its value is −0.19.

What about the “RNA-seq results: GBA expression” value (gene GBA) of the same compound?
Its value is 0.27.

And the “RNA-seq results, GBE1 expression” value (gene GBE1)?
Its value is −0.20.

And the “RNA-seq results: GBE1 expression” value (gene GBE1)?
Its value is −0.08.

And the “RNA-seq results, GCH1 expression” value (gene GCH1)?
The value was −0.27.

And the “RNA-seq results: GCH1 expression” value (gene GCH1)?
The value was −0.25.

And the “RNA-seq results, GCKR expression” value (gene GCKR)?
The value was 0.29.

What about the “RNA-seq results: GCKR expression” value (gene GCKR) of the same compound?
Its value is 0.32.

And the “RNA-seq results, GCLC expression” value (gene GCLC)?
Its value is −0.18.

And the “RNA-seq results: GCLC expression” value (gene GCLC)?
The value was −0.14.

And the “RNA-seq results, GGCX expression” value (gene GGCX)?
Its value is 0.10.

What about the “RNA-seq results: GGCX expression” value (gene GGCX) of the same compound?
The value was −0.22.

What about the “RNA-seq results, GHR expression” value (gene GHR) of the same compound?
The value was −0.27.

What about the “RNA-seq results: GHR expression” value (gene GHR) of the same compound?
Its value is −0.6.

What about the “RNA-seq results, GJB2 expression” value (gene GJB2) of the same compound?
Its value is −0.37.

What about the “RNA-seq results: GJB2 expression” value (gene GJB2) of the same compound?
Its value is 0.1.

What about the “RNA-seq results, GLDC expression” value (gene GLDC) of the same compound?
The value was 0.02.

And the “RNA-seq results: GLDC expression” value (gene GLDC)?
Its value is −0.33.

What about the “RNA-seq results, GLIS3 expression” value (gene GLIS3) of the same compound?
The value was −0.13.

What about the “RNA-seq results: GLIS3 expression” value (gene GLIS3) of the same compound?
Its value is −0.41.

What about the “RNA-seq results, GLS2 expression” value (gene GLS2) of the same compound?
The value was −0.24.

And the “RNA-seq results: GLS2 expression” value (gene GLS2)?
Its value is −0.06.

What about the “RNA-seq results, GLYCTK expression” value (gene GLYCTK) of the same compound?
The value was 0.32.

And the “RNA-seq results: GLYCTK expression” value (gene GLYCTK)?
The value was 0.43.

What about the “RNA-seq results, GNE expression” value (gene GNE) of the same compound?
The value was −0.21.

What about the “RNA-seq results: GNE expression” value (gene GNE) of the same compound?
The value was −0.11.

And the “RNA-seq results, GNPTAB expression” value (gene GNPTAB)?
Its value is −0.49.

And the “RNA-seq results: GNPTAB expression” value (gene GNPTAB)?
Its value is −0.13.

What about the “RNA-seq results, GOSH expression” value (gene GOSH) of the same compound?
The value was −0.17.

And the “RNA-seq results: GOSH expression” value (gene GOSH)?
Its value is 0.44.

What about the “RNA-seq results, GPC3 expression” value (gene GPC3) of the same compound?
The value was −0.45.

And the “RNA-seq results: GPC3 expression” value (gene GPC3)?
The value was 0.06.
